Assays:
Opiate δ2 = Opiate δ2 (Homo sapiens, UniProt P41143); assay: NSAIDS and Opioid Receptor Test: Opiate δ2; assay type: binding; details: 10 μM
Method: (§1) Compounds were screened as DMSO solutions at 10 μM, 100 μM, or 200 μM and values represent percent inhibition of control-specific binding. […] As NSAID and opioid mechanisms of action are precluded, a person of ordinary skill in the art understands that undesirable side effects associated with inhibition of COX receptors in NSAIDs and activation of opiate receptors in opioids can be avoided by compounds described herein. Furthermore, opioids are known to lose their analgesic potency after to continued administration. (See Benyamin, et al. “Opioid Complications and Side Effects” Pain Physician 11 (2008): S105-S120). As the data indicates compounds described herein have a different mechanism action compared to opioids, a person of ordinary skill in the art would appreciate that compounds described herein would not be expected to lose their analgesic potency like opioids after continued admininistration.

male Sprague-Dawley rats [1] = assay: UVB Inflammatory Pain Test (thermal hyperalgesia); assay type: in vivo; details: rat, oral; for paw withdrawal latency, 1 h: 1 h after dosing; for paw withdrawal latency, 2 h: 2 h after dosing; for paw withdrawal latency, 4 h: 4 h after dosing
Outline: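 Left hind-paw plantar UVB (350 mJoules/cm^2) given on Day −3 to male Sprague-Dawley rats; on Day 0, test compounds dosed orally at 3, 10, 30 or 100 mg/kg, with water vehicle, celecoxib 30 mg/kg and acetaminophen 300 mg/kg. Radiant-heat paw withdrawal latency (mean of 3, 30 s cutoff) measured before dosing and about 1, 2 and 4 h after.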

male Sprague-Dawley rats [2] = assay: Osteoarthritis Pain Test (MIA, mechanical hyperalgesia); assay type: in vivo; details: rat; for joint compression threshold, Day 3, 1 h: Day 3, 1 h post-dosing; for joint compression threshold, Day 3, 2 h: Day 3, 2 h post-dosing; for joint compression threshold, Day 3, 4 h: Day 3, 4 h post-dosing; for joint compression threshold, Day 6, 1 h: Day 6, 1 h post-dosing; for joint compression threshold, Day 6, 2 h: Day 6, 2 h post-dosing; for joint compression threshold, Day 6, 4 h: Day 6, 4 h post-dosing; for joint compression threshold, Day 0, 1 h: Day 0, 1 h post-dosing; for joint compression threshold, Day 0, 2 h: Day 0, 2 h post-dosing; for joint compression threshold, Day 0, 4 h: Day 0, 4 h post-dosing
Method: Osteoarthritis pain was induced in non-fasted male Sprague-Dawley rats weighing 150-250 g by injecting 2 mg of monosodium iodoacetate (MIA) into the left knee joint. Mechanical hyperalgesia was measured using a digital Randall-Selitto device (dRS; IITC Life Sciences©; Woodland Hills, Calif.). Animals were allowed to acclimate to the testing room for a minimum of 15 minutes before testing. Animals were placed in a restraint sling that suspended the animal, leaving the hind limbs available for testing. The stimulus was applied to the knee joint by a blunt tip and pressure was applied gradually over approximately 10 seconds. Joint compression threshold values were recorded at the first observed nocifensive behavior (vocalization, struggle, or withdrawal). One reading per joint was taken at each time point, and a maximum stimulus cutoff of 500 grams was used to prevent injury to the animal. Mechanical hyperalgesia was assessed prior to MIA injection, and again 14 days later. After 14 days, test or control articles were administered once daily for 7 days with mechanical hyperalgesia assessed prior to dosing, 1, 2, and 4 hours post-dosing on days 0, 3, and 6. Test compounds were administered orally at concentrations of 3, 10, 30 or 100 mg/kg and celecoxib was administered orally at a concentration of 30 mg/kg. The control group received the vehicle (sterile water). After day 0, groups receiving the 100 mg/kg dose were reduced to a dose of 3 mg/kg. In Table 5, ‘A’ designates ≥375 grams of joint compression, ‘B’ designates ≥325 and <375 grams of joint compression, and ‘C’ designates <325 grams of joint compression.
The results provided in Table 5 are for oral administration in rats.

male Sprague-Dawley rats [3] = assay: Formalin Paw Test, rat, oral; assay type: in vivo; details: 30 mg/kg
Outline: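 Paw licking recorded every 5 min for 35 min after formalin injection, in groups of 8 non-fasted males: Sprague-Dawley rats (200–225 g) dosed orally or ICR mice (23±3 g) dosed intraperitoneally. Scores are licking-time bins: A <70 s, B 70–165 s, C >165 s.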

Opiate μ = Opiate μ (Homo sapiens, UniProt P35372); assay: NSAIDS and Opioid Receptor Test: Opiate μ; assay type: binding; details: 10 μM
Method: as §1

[4] = oral once daily, 3 mg/kg (group had 100 mg/kg on day 0)

Sequence of Opiate μ (P35372 whole entry): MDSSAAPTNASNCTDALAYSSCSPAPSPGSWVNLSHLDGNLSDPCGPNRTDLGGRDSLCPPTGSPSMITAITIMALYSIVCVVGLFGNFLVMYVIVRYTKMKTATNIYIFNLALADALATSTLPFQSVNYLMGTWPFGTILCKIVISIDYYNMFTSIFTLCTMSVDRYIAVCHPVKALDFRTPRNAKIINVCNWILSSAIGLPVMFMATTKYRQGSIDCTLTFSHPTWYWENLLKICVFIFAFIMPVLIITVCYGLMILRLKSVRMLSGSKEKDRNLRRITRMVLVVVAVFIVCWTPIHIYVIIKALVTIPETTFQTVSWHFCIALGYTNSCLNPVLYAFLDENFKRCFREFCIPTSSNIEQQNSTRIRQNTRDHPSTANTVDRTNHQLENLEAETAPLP
Sequence of Opiate δ2 (P41143 whole entry): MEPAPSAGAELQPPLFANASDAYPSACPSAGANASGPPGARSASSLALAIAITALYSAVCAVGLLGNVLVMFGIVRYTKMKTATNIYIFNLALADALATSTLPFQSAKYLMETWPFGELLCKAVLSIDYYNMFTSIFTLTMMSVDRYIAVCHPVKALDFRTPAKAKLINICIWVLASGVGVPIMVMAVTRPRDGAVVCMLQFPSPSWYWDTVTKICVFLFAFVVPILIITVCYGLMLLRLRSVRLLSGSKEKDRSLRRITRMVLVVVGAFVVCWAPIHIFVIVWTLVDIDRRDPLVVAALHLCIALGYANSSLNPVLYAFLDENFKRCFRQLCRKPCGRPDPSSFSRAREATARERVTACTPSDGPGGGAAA

Which inhibition at 10 µM (Opiate δ2) does the source give for `Cl.NC12CC(c3nc(C(F)(F)F)cs3)(C1)C2` [Compound 1, 3-(4-(Trifluoromethyl)thiazol-2-yl)bicyclo[1.1.1]pentan-1-amine hydrochloride] here?
Its inhibition at 10 µM is 7%.

And the “paw withdrawal latency, 1 h” value (male Sprague-Dawley rats [1]; 3 mg/kg)?
Its value is “B (>6 and <8 seconds of paw withdrawal latency)”.

And the “paw withdrawal latency, 2 h” value (male Sprague-Dawley rats [1]; 3 mg/kg)?
Its value is “B (>6 and <8 seconds of paw withdrawal latency)”.

What about the “paw withdrawal latency, 4 h” value (male Sprague-Dawley rats [1]; 3 mg/kg) of the same compound?
Its value is “B (>6 and <8 seconds of paw withdrawal latency)”.

And the “paw withdrawal latency, 1 h” value (male Sprague-Dawley rats [1]; 10 mg/kg)?
Its value is “B (>6 and <8 seconds of paw withdrawal latency)”.

What about the “paw withdrawal latency, 2 h” value (male Sprague-Dawley rats [1]; 10 mg/kg) of the same compound?
Its value is “B (>6 and <8 seconds of paw withdrawal latency)”.

And the “paw withdrawal latency, 4 h” value (male Sprague-Dawley rats [1]; 10 mg/kg)?
The value was “B (>6 and <8 seconds of paw withdrawal latency)”.

What about the “paw withdrawal latency, 1 h” value (male Sprague-Dawley rats [1]; 30 mg/kg) of the same compound?
The value was “A (>8 seconds of paw withdrawal latency)”.

What about the “paw withdrawal latency, 2 h” value (male Sprague-Dawley rats [1]; 30 mg/kg) of the same compound?
The value was “A (>8 seconds of paw withdrawal latency)”.

And the “paw withdrawal latency, 4 h” value (male Sprague-Dawley rats [1]; 30 mg/kg)?
The value was “A (>8 seconds of paw withdrawal latency)”.

What about the “paw withdrawal latency, 1 h” value (male Sprague-Dawley rats [1]; 100 mg/kg) of the same compound?
The value was “A (>8 seconds of paw withdrawal latency)”.

What about the “paw withdrawal latency, 2 h” value (male Sprague-Dawley rats [1]; 100 mg/kg) of the same compound?
Its value is “A (>8 seconds of paw withdrawal latency)”.

And the “paw withdrawal latency, 4 h” value (male Sprague-Dawley rats [1]; 100 mg/kg)?
The value was “A (>8 seconds of paw withdrawal latency)”.

What about the “joint compression threshold, Day 3, 1 h” value (male Sprague-Dawley rats [2]; [4]) of the same compound?
Its value is “A (≥375 grams of joint compression)”.

And the “joint compression threshold, Day 3, 2 h” value (male Sprague-Dawley rats [2]; [4])?
The value was “A (≥375 grams of joint compression)”.

And the “joint compression threshold, Day 3, 4 h” value (male Sprague-Dawley rats [2]; [4])?
The value was “A (≥375 grams of joint compression)”.

What about the “joint compression threshold, Day 6, 1 h” value (male Sprague-Dawley rats [2]; [4]) of the same compound?
The value was “A (≥375 grams of joint compression)”.

What about the “joint compression threshold, Day 6, 2 h” value (male Sprague-Dawley rats [2]; [4]) of the same compound?
The value was “B (≥325 and <375 grams of joint compression)”.

And the “joint compression threshold, Day 6, 4 h” value (male Sprague-Dawley rats [2]; [4])?
The value was “A (≥375 grams of joint compression)”.

And the “joint compression threshold, Day 0, 1 h” value (male Sprague-Dawley rats [2]; oral once daily, 10 mg/kg)?
The value was “B (≥325 and <375 grams of joint compression)”.

And the “joint compression threshold, Day 0, 2 h” value (male Sprague-Dawley rats [2]; oral once daily, 10 mg/kg)?
The value was “C (<325 grams of joint compression)”.

What about the “joint compression threshold, Day 0, 4 h” value (male Sprague-Dawley rats [2]; oral once daily, 10 mg/kg) of the same compound?
The value was “C (<325 grams of joint compression)”.

And the “joint compression threshold, Day 3, 1 h” value (male Sprague-Dawley rats [2]; oral once daily, 10 mg/kg)?
Its value is “B (≥325 and <375 grams of joint compression)”.

What about the “joint compression threshold, Day 3, 2 h” value (male Sprague-Dawley rats [2]; oral once daily, 10 mg/kg) of the same compound?
Its value is “B (≥325 and <375 grams of joint compression)”.

And the “joint compression threshold, Day 3, 4 h” value (male Sprague-Dawley rats [2]; oral once daily, 10 mg/kg)?
The value was “B (≥325 and <375 grams of joint compression)”.

And the “joint compression threshold, Day 6, 1 h” value (male Sprague-Dawley rats [2]; oral once daily, 10 mg/kg)?
Its value is “B (≥325 and <375 grams of joint compression)”.

What about the “joint compression threshold, Day 6, 2 h” value (male Sprague-Dawley rats [2]; oral once daily, 10 mg/kg) of the same compound?
The value was “B (≥325 and <375 grams of joint compression)”.

And the “joint compression threshold, Day 6, 4 h” value (male Sprague-Dawley rats [2]; oral once daily, 10 mg/kg)?
Its value is “B (≥325 and <375 grams of joint compression)”.

What about the “joint compression threshold, Day 0, 1 h” value (male Sprague-Dawley rats [2]; oral once daily, 30 mg/kg) of the same compound?
The value was “B (≥325 and <375 grams of joint compression)”.

What about the “joint compression threshold, Day 0, 2 h” value (male Sprague-Dawley rats [2]; oral once daily, 30 mg/kg) of the same compound?
Its value is “B (≥325 and <375 grams of joint compression)”.

And the “joint compression threshold, Day 0, 4 h” value (male Sprague-Dawley rats [2]; oral once daily, 30 mg/kg)?
Its value is “B (≥325 and <375 grams of joint compression)”.

What about the “joint compression threshold, Day 3, 1 h” value (male Sprague-Dawley rats [2]; oral once daily, 30 mg/kg) of the same compound?
The value was “A (≥375 grams of joint compression)”.

And the “joint compression threshold, Day 3, 2 h” value (male Sprague-Dawley rats [2]; oral once daily, 30 mg/kg)?
The value was “A (≥375 grams of joint compression)”.

What about the “joint compression threshold, Day 3, 4 h” value (male Sprague-Dawley rats [2]; oral once daily, 30 mg/kg) of the same compound?
Its value is “B (≥325 and <375 grams of joint compression)”.

What about the “joint compression threshold, Day 6, 1 h” value (male Sprague-Dawley rats [2]; oral once daily, 30 mg/kg) of the same compound?
Its value is “A (≥375 grams of joint compression)”.

And the “joint compression threshold, Day 6, 2 h” value (male Sprague-Dawley rats [2]; oral once daily, 30 mg/kg)?
The value was “B (≥325 and <375 grams of joint compression)”.

What about the “joint compression threshold, Day 6, 4 h” value (male Sprague-Dawley rats [2]; oral once daily, 30 mg/kg) of the same compound?
The value was “B (≥325 and <375 grams of joint compression)”.

And the “joint compression threshold, Day 0, 1 h” value (male Sprague-Dawley rats [2]; oral, 100 mg/kg)?
The value was “A (≥375 grams of joint compression)”.

And the “joint compression threshold, Day 0, 2 h” value (male Sprague-Dawley rats [2]; oral, 100 mg/kg)?
Its value is “A (≥375 grams of joint compression)”.

What about the “joint compression threshold, Day 0, 4 h” value (male Sprague-Dawley rats [2]; oral, 100 mg/kg) of the same compound?
Its value is “A (≥375 grams of joint compression)”.

What about the “Early Phase, seconds of paw licking” value (male Sprague-Dawley rats [3]; early/acute phase (0-10 minutes)) of the same compound?
The value was “A (<70 seconds of paw licking)”.

What about the “Late Phase, seconds of paw licking” value (male Sprague-Dawley rats [3]; late/tonic phase (10-35 minutes)) of the same compound?
Its value is “B (>70 and <165 seconds of paw licking)”.

What about the inhibition at 10 µM (Opiate μ) of the same compound?
Its inhibition at 10 µM is 11%.
